How the values were obtained:
Type in all cases: in vivo, healthy volunteers (men and women)
[1] = system: healthy volunteers, of both sexes, 60 to 80 years old; test: Clinical evaluation of the weathered (papyrus-like) appearance of the skin, randomized double-blind study versus placebo; conditions: 12 months; for variation in the weathered (papyrus-like) appearance relative to T0 (clinical score 0 to 9): back of a hand, 50 mg/day orally, FIG. 1
Experimental: (§1) The evaluation was carried out using a randomized double-blind clinical study on 70 individuals (35 men and 35 women). The inclusion criteria were as follows: healthy volunteers, of both sexes, free of any severe pathological condition and 60 to 80 years old.
(§2) The treatment consisted, for 12 months, of a daily dose of 50 mg of DHEA, taken in the morning, in the form of a breakable tablet, for half the individuals, or as a placebo for the other half of the individuals.
The weathered (papyrus-like) appearance is evaluated clinically, blind, on the back of a hand at the start of treatment (T0) and at the end of treatment (T12), by the same clinician.
The weathered (papyrus-like) appearance is represented by a clinical score ranging from 0 (weathered appearance absent or only very slightly noticeable) to 9 (very marked weathered appearance).
(§3) The statistical analysis is performed using the Wilcoxon test.

[2] = system: healthy volunteers, of both sexes, 60 to 80 years old; test: Clinical evaluation of the slackening of the skin, randomized double-blind study versus placebo; conditions: for Slackening of the skin of the forearm (clinical score 0 to 9): ventral side of the forearm
Experimental: as §1, §2
The slackening of the skin is evaluated clinically, blind, on the ventral side of the forearm and on the skin of the face at the start of treatment (T0) and at the end of treatment (T12), by the same clinician. The slackening of the skin is represented by a clinical score ranging from 0 (slight or hardly noticeable slackening) to 9 (very marked slackening). The statistical analysis is performed using the Wilcoxon test.

[3] = system: healthy volunteers, of both sexes, 60 to 80 years old; test: Elasticity of the skin measured with the Derma Torque Meter, randomized double-blind study versus placebo; conditions: for Elasticity of the skin of the forearm (ratio of extensibility to recovery): ventral side of the forearm
Experimental: as §1, §2
The elasticity of the skin was evaluated with the Derma Torque Meter® (DTM® Dia-Stron Limited, Andover, Hampshire, United Kingdom). The biomechanical properties (elasticity) of the skin of the ventral side of the forearm is measured. The DTM® makes it possible to study the response of the skin to a deformation applied in the direction parallel to its surface. The rotation of a disk stuck to the skin is measured and the elasticity of the skin is thus evaluated, which is one of the best markers of aging (Escoffier C. et al. (1989), J. Invest. Dermatol., 93, 353-357).
The elasticity is expressed as the ratio of extensibility to recovery.
as §3

[4] = after treatment with DHEA administered orally, 50 mg/day, 12 months

## C[C@]12CC[C@H](O)CC1=CC[C@@H]1[C@@H]2CC[C@]2(C)C(=O)CC[C@@H]12 [DHEA, dehydroepiandrosterone]
[1]; group of men
  variation in the weathered (papyrus-like) appearance relative to T0 (clinical score 0 to 9): avoid this degradation
[1]; group of women, significant relative to placebo (p=0.005)
  variation in the weathered (papyrus-like) appearance relative to T0 (clinical score 0 to 9): decrease in the mean scores
[1]; overall conclusion, after oral administration, 50 mg/day
  effect on the weathered (papyrus-like) appearance of the skin: improves the weathered (papyrus-like) appearance of the skin
[2]; T0 (start of treatment)
  Slackening of the skin of the face (clinical score 0 to 9): 6.69
  Slackening of the skin of the forearm (clinical score 0 to 9): 5.44
[2]; T12 (end of treatment), 50 mg/day orally, 12 months, Wilcoxon P = 0.5
  Slackening of the skin of the face (clinical score 0 to 9): 6.81
[2]; T12 (end of treatment), 50 mg/day orally, 12 months, Wilcoxon P = 0.15
  Slackening of the skin of the forearm (clinical score 0 to 9): 7.19
[2]; [4]
  variation in the slackening of the skin after treatment: do not significantly vary
[3]; T0 (start of treatment)
  Elasticity of the skin of the forearm (ratio of extensibility to recovery): 0.36
[3]; T12 (end of treatment), 50 mg/day orally, 12 months, Wilcoxon P = 0.55
  Elasticity of the skin of the forearm (ratio of extensibility to recovery): 0.31
[3]; [4]
  variation in the elasticity of the skin after treatment: do not significantly vary

Reference: patent publication US20030059451A1, “Use of orally administered dehydroepiandrosterone, precursors and derivatives thereof in order to improve the papery aspect of the skin” (priority 2000, published 2003)
